Measured values taken from ChEMBL document CHEMBL1201862, “PubChem BioAssay data set” (2004).
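Exposure lasted 48 hours, with cells grown in 96-well plates and compounds tested at five concentrations. GI50 is the concentration that inhibits growth by half.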 Activity calls are given as the source filed them. Cut-off read from the data, not from the text of the source: active = GI50 up to about 1.1 µM and inactive = higher.

How the values were obtained:
Experiment in all cases: inhibition of tumour cell growth, NCI panel, 48 h
[1] = test system: TK-10
[2] = test system: CAKI-1
[3] = test system: NCI-H460
[4] = test system: UACC-62
[5] = test system: Hs-578T
[6] = test system: MDA-MB-435
[7] = test system: SR
[8] = test system: OVCAR-8
[9] = test system: HCC 2998
[10] = test system: SK-OV-3
[11] = test system: K562
[12] = test system: HOP-62
[13] = test system: ACHN
[14] = test system: MDA-N
[15] = test system: SF-295
[16] = test system: RPMI-8226
[17] = test system: HL-60
[18] = test system: NCI/ADR-RES
[19] = test system: CCRF-CEM
[20] = test system: SNB-19

SMILES	GI50 [1]	GI50 [2]	GI50 [3]	GI50 [4]	GI50 [5]	GI50 [6]	GI50 [7]	GI50 [8]	GI50 [9]	GI50 [10]	GI50 [11]	GI50 [12]	GI50 [13]	GI50 [14]	GI50 [15]	GI50 [16]	GI50 [17]	GI50 [18]	GI50 [19]	GI50 [20]
CC12OC1(C)C1C(=O)OCC1C2=O (stereo not given)	> 100 µM (inactive)	29.2 µM (inactive)	> 100 µM (inactive)	99.3 µM (inactive)	22.1 µM (inactive)	> 100 µM (inactive)	21 µM (inactive)	49.9 µM (inactive)	> 100 µM (inactive)	> 100 µM (inactive)	28.2 µM (inactive)	41 µM (inactive)	62.1 µM (inactive)	> 100 µM (inactive)	83.8 µM (inactive)	> 100 µM (inactive)	20.6 µM (inactive)	51.3 µM (inactive)	17.5 µM (inactive)	61.1 µM (inactive)
O=S(=O)(O)c1c(Cl)c(Cl)c(O)c2ncccc12	12.5 µM (inactive)	18.6 µM (inactive)	7.36 µM (inactive)	8.34 µM (inactive)	20.2 µM (inactive)	9.4 µM (inactive)	6.3 µM (inactive)	10.3 µM (inactive)	13.5 µM (inactive)	13 µM (inactive)	7.57 µM (inactive)	5 µM (inactive)	7.33 µM (inactive)	14.6 µM (inactive)	7.06 µM (inactive)	10.6 µM (inactive)	1.87 µM (inactive)	5.05 µM (inactive)	4.01 µM (inactive)	11.8 µM (inactive)
O=C(CC(=O)c1ccncc1)c1ccccc1	> 94.8 µM (inactive)	> 100 µM (inactive)	32.9 µM (inactive)	88.7 µM (inactive)	> 100 µM (inactive)	> 100 µM (inactive)	22.1 µM (inactive)	59.6 µM (inactive)	> 67.1 µM (inactive)	> 100 µM (inactive)	45.1 µM (inactive)	71.8 µM (inactive)	67.6 µM (inactive)	> 71.1 µM (inactive)	> 83.8 µM (inactive)	52.5 µM (inactive)	1.01 µM (active)	24.3 µM (inactive)	11.9 µM (inactive)	> 100 µM (inactive)
CC(C)(C)COC(=O)C(C)(C)NC(=O)C(CC(=O)OCc1ccccc1)NC(=O)OCc1ccccc1 (stereo not given)	19.4 µM (inactive)	58.2 µM (inactive)	30 µM (inactive)	19.5 µM (inactive)	27.9 µM (inactive)	25.8 µM (inactive)	25.5 µM (inactive)	40.1 µM (inactive)	35.3 µM (inactive)	35.4 µM (inactive)	30.1 µM (inactive)	75 µM (inactive)	32.9 µM (inactive)	30.9 µM (inactive)	34.4 µM (inactive)	26.5 µM (inactive)	46.5 µM (inactive)	36.8 µM (inactive)	25.3 µM (inactive)	38.3 µM (inactive)
CCSc1nn(-c2c3ccccc3nc3ccccc23)c(=S)s1	> 100 µM (inactive)	> 100 µM (inactive)	> 100 µM (inactive)	> 100 µM (inactive)	> 100 µM (inactive)	> 100 µM (inactive)	> 100 µM (inactive)	> 100 µM (inactive)	> 100 µM (inactive)	> 100 µM (inactive)	> 100 µM (inactive)	> 100 µM (inactive)	> 100 µM (inactive)	> 100 µM (inactive)	> 100 µM (inactive)	> 100 µM (inactive)	> 100 µM (inactive)	> 100 µM (inactive)	> 100 µM (inactive)	> 100 µM (inactive)
N#CC12CC3=C(N=C1NC1=C(CCc4ccccc41)C2)c1ccccc1CC3 (stereo not given)	4.61 µM (inactive)	3.8 µM (inactive)	3.06 µM (inactive)	2.82 µM (inactive)	4.83 µM (inactive)	0.278 µM (active)	0.255 µM (active)	3.24 µM (inactive)	1.74 µM (inactive)	2.67 µM (inactive)	0.317 µM (active)	5.37 µM (inactive)	6.59 µM (inactive)	0.258 µM (active)	0.984 µM (active)	0.993 µM (active)	0.323 µM (active)	2.97 µM (inactive)	0.745 µM (active)	3.95 µM (inactive)
